Several values for one entry are separate records, joined by “and”; a condition that tells them apart may be missing. Equal values may be shown once.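 Interpolation was linear, between the two tested concentrations surrounding the appropriate level; five concentrations were tested over 48 hours in 96-well plates. GI50 = concentration required for 50% inhibition of growth. Definition used: TGI = concentration required for complete inhibition of growth.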
Tests used:
Assay in all cases: NCI-60 cell line screen, 48 h
A549 NSCLC = system: A549 NSCLC
M14 melanoma = system: M14 melanoma
NCI-H226 lung = system: NCI-H226 lung
SN12C renal = system: SN12C renal
OVCAR-4 ovarian = system: OVCAR-4 ovarian
SF-268 CNS = system: SF-268 CNS
SNB-19 CNS = system: SNB-19 CNS
EKVX NSCLC = system: EKVX NSCLC
OVCAR-3 ovarian = system: OVCAR-3 ovarian
HT29 colon = system: HT29 colon

Structure (SMILES) | GI50 (A549 NSCLC) | TGI (A549 NSCLC) | GI50 (M14 melanoma) | TGI (M14 melanoma) | GI50 (NCI-H226 lung) | TGI (NCI-H226 lung) | GI50 (SN12C renal) | TGI (SN12C renal) | GI50 (OVCAR-4 ovarian) | TGI (OVCAR-4 ovarian) | GI50 (SF-268 CNS) | TGI (SF-268 CNS) | GI50 (SNB-19 CNS) | TGI (SNB-19 CNS) | GI50 (EKVX NSCLC) | TGI (EKVX NSCLC) | GI50 (OVCAR-3 ovarian) | TGI (OVCAR-3 ovarian) | GI50 (HT29 colon) | TGI (HT29 colon)
CC1=C(C#N)C23C(=O)N(c4ccccc4)C(=O)C2=C(O)C=CC3(O)N1Cc1ccc(Cl)cc1Cl (stereo not drawn) | 12.2 µM | 28.5 µM | 3.43 µM | 16.1 µM | 2.54 µM | 9.96 µM | 2.4 µM | 6.83 µM | 6.36 µM | 19.6 µM | 3.74 µM | 16.4 µM | 3.8 µM | 14.9 µM | 9.43 µM | 21.3 µM | 2.89 µM | 4.96 µM | 1.97 µM | 4.84 µM
Nc1ncc(-c2ccc3ncnc(Nc4cccc(Cl)c4)c3c2)cn1 | 1.7 µM | > 100 µM |  |  | 0.294 µM |  | 1.82 µM | > 100 µM |  |  | 0.294 µM and 1.95 µM | > 100 µM | 0.387 µM and 2.28 µM | > 100 µM |  |  |  |  | 1.75 µM | > 100 µM
COc1cc(-c2nn(-c3cccc(NC(=O)Nc4ccc(Cl)c(C(F)(F)F)c4)c3)cc2-c2ccncc2)ccc1Cl | 1.02 µM | 16.7 µM | 1.08 µM | 3.71 µM | 1.82 µM | > 32.5 µM | 1.14 µM | 9.23 µM | 1.29 µM | 25.6 µM | 1.46 µM | 9.14 µM | 1.24 µM | 9.24 µM |  |  | 0.889 µM | 2.44 µM | 1.19 µM | 4.45 µM
CC(=O)OC12C(C)=C(C)C(=O)N1c1ccccc1N2C(C)=O (stereo not drawn) |  | > 100 µM |  | > 100 µM |  | > 100 µM |  |  |  | > 100 µM |  | > 100 µM |  | > 100 µM |  | > 100 µM |  | > 100 µM |  | > 100 µM
CC(=O)OCc1c(O)c2c([nH]c1=O)CCc1ccccc1-2 |  | > 350 µM |  |  |  | > 350 µM |  | 155 µM |  |  |  | 221 µM |  | > 350 µM |  | > 350 µM |  | 102 µM |  | 311 µM
Nc1nc(=O)n(C2CCC(CO)O2)cc1F (stereo not drawn) |  | > 100 µM |  | > 100 µM |  | > 100 µM |  | > 100 µM |  | > 100 µM |  | > 100 µM |  | > 100 µM |  | > 100 µM |  | > 100 µM |  | > 100 µM
Cc1ccc2c(C(C[N+](=O)[O-])c3ccccc3)c(-c3ccccc3)[nH]c2c1 (stereo not drawn) | 18 µM | > 95 µM | 16 µM | > 95 µM | 62.4 µM | > 95 µM | 44.1 µM | > 95 µM | 42.4 µM | > 95 µM | 73.3 µM | > 95 µM | 43.7 µM | > 95 µM | 75.9 µM | > 95 µM | 16.3 µM | > 95 µM | 20.9 µM | > 95 µM
O=C1C2CCN(CC2)C1CN1CCOCC1 (stereo not drawn) |  | 37.5 µM |  | 6.46 µM |  | 26.5 µM |  | 8.28 µM |  | 10.7 µM |  | 34.3 µM |  | 32.6 µM |  | 33.8 µM |  | 4.18 µM |  | 16.9 µM
O=C(O)Cc1cccc2c(=O)cc(-c3ccccc3)oc12 | 728 µM | 250 µM and > 1000 µM | 519 µM | > 1000 µM | 363 µM | 250 µM and > 1000 µM | 508 µM | 250 µM and > 964 µM | 546 µM | 250 µM and > 1000 µM | 814 µM | > 1000 µM | > 909 µM | > 1000 µM | 611 µM | 250 µM and > 1000 µM | 568 µM | 250 µM and > 1000 µM | 489 µM | > 1000 µM
O=C1CCCCCCC2=C1C(Sc1ccccc1)CC2 (stereo not drawn) |  | > 100 µM |  | > 100 µM |  | > 100 µM |  | 42.3 µM |  | > 100 µM |  | 44 µM |  | > 100 µM |  | 85.2 µM |  |  |  | 83.8 µM
O=C(O)/C=C/c1ccc(Oc2ccccc2C(=O)O)o1 |  | > 10 µM |  | > 10 µM |  |  |  | > 10 µM |  | > 10 µM |  | > 10 µM |  | > 10 µM |  |  |  |  |  | > 10 µM
CCC(CC)n1cnc2c(-c3cnc(N)cn3)nc(N3CC4CCC(C3)O4)nc21 | 0.405 µM | > 100 µM | 0.151 µM | > 100 µM | 0.549 µM | > 100 µM | 0.294 µM | > 100 µM | 0.169 µM | 3.17 µM | 0.566 µM | > 100 µM | 1.37 µM | > 100 µM |  |  | 0.5 µM | > 100 µM | 0.742 µM | > 100 µM
O=C(c1c(F)c(F)c(F)c(F)c1F)c1c(F)c(F)c(F)c(F)c1F |  | 15.4 µM |  | 5.97 µM |  | 8.96 µM |  |  |  | 3.14 µM |  | 7.8 µM |  | 16.3 µM |  | 4.06 µM |  | 2.43 µM |  | 3.08 µM
COc1ccc(N2C(=O)C3CC(c4ccc(Br)cc4)c4c([nH]c5ccccc45)C3C2=O)cc1 (stereo not drawn) |  | 6.96 µM |  | > 100 µM |  | 77.2 µM |  | 15.2 µM |  | 9.29 µM |  | 23.4 µM |  | 10.5 µM |  | 42.7 µM |  |  |  | 44.5 µM
C[C@@H]1C[C@H](N)C[C@H](c2ccncc2NC(=O)c2ccc(F)c(-c3c(F)cccc3F)n2)C1 | 15.9 µM and > 10 µM | 31.6 µM and > 10 µM | 12.9 µM and 2.35 µM | 27.2 µM and > 10 µM |  |  | 12.3 µM and > 10 µM | 25.7 µM and > 10 µM | 9.39 µM and > 10 µM | 22 µM and > 10 µM | 10.8 µM and > 10 µM | 25.3 µM and > 10 µM | 15.6 µM and > 10 µM | 30.3 µM and > 10 µM | 4.35 µM and > 10 µM | 21.1 µM and > 10 µM | 14.3 µM and > 10 µM | 28.2 µM and > 10 µM | 4.17 µM and 5.55 µM | 18.7 µM and > 10 µM
O=C1c2c(c(=O)[nH]c3ccccc23)[C@H](c2ccccc2)[C@@H]2CCCN12 | 20.2 µM | > 100 µM | 3.53 µM | 14.5 µM | 2.05 µM | 13.8 µM | 3.38 µM | > 100 µM | 2.63 µM | 11.6 µM | 3.68 µM | 23 µM | 3.93 µM | > 100 µM | 13.5 µM | 55.8 µM | 2.46 µM | 7.1 µM |  | 
O=S1(=O)c2ccccc2N(O)C2=NCCN21 |  | > 100 µM |  | > 100 µM |  | > 100 µM |  | > 100 µM |  |  |  | > 100 µM |  | > 100 µM |  | > 100 µM |  | > 100 µM |  | > 100 µM
